# Measurements from US8507506B2, “Theophylline derivative inhibits osteoporosis” (Kaohsiung Medical University, priority 2011, dated 2013).
# Columns and labels:
# Format in all cases: cell-based
# [1] = test system: TRAP activity of RAW264.7 cells induced by RANKL; experiment: TRAP activity assay; conditions: 10 ng/ml RANKL for 5 days, 10 μM
# Procedure: 10^3 cells were plated per well in 96-well plates. […] When the reaction fluid became yellow, 0.1 M, 100 μl/well NaOH was added to terminate the reaction, and OD405 was examined in 37° C. b) 3 μl/well supernatant was examined by Bio-Red DC Protein Assay to detect the protein concentration.
# [2] = test system: RAW264.7 cells; experiment: BrdU assay, proliferation induced by RANKL; conditions: RAW264.7, 10 μM
# Procedure: The BrdU assay was followed the instructions of Cell Proliferation ELISA BrdU kit. 10^3 cells were plated per well in 96-well plates. […] After washing in wash buffer for three times, 100 μl/well Substrate reaction was added and incubated for 30 minutes at room temperature.
# [3] = test system: RAW264.7 cells; experiment: MTT assay, proliferation induced by RANKL; conditions: RAW264.7, 10 μM
# Procedure: Cells were plated onto 96-well plates at a density of 10^3 cells per well. After 24 hours incubation, the different concentrations of the different drugs were administrated into the plates. […] Subsequently, the medium was removed, and 100 μl/well isopropanol was added to solved formazan. The plates were shaken for 15 minutes and stood for 15 minutes, and then the absorbance was measured at wavelength of 540 nm and 630 nm. The ratio of the absorbance of treated cells relative to that of the control cells was calculated and expressed as a percentage of cell survival.
smiles,measurement,setting,value
CCCc1nn(C)c2c(=O)[nH]c(-c3cc(S(=O)(=O)N4CCN(C)CC4)ccc3OCC)nc12 [sildenafil],TRAP activity induced by RANKL,[1],have no obviously inhibiting effect on TRAP activity induced by RANKL
Cn1c(=O)c2[nH]cnc2n(C)c1=O [theophylline],TRAP activity induced by RANKL,[1],have no obviously inhibiting effect on TRAP activity induced by RANKL
same,cell proliferation induced by RANKL (BrdU assay),[2],have no previous inhibiting effect on cell proliferation induced by RANKL
same,cell proliferation induced by RANKL (MTT assay),[3],have no previous inhibiting effect on cell proliferation induced by RANKL
